Measurements reported in publication PMC6832524, “A Nature-Inspired Design Yields a New Class of Steroids Against Trypanosomatids” (Molecules, 2019).
Read-outs that look alike come from different tables or passages of the source.

Columns and labels:
[1] = test system: L. infantum .uy (parasites isolated from two dogs in the first Leishmaniasis outbreak in Uruguay); assay: in vitro activity against L. infantum isolated from dogs in Uruguay; assay type: cell-based, Leishmania infantum; details: read-out: IC50± %SD (µM) promastigotes L. infantum uy*p/c
[2] = test system: L. infantum (MHOM/BR/2002/LPC-RPV) promastigotes; assay: in vitro anti-Leishmania activity, promastigotes, resazurin; assay type: cell-based, Leishmania infantum
[3] = test system: T. cruzi epimastigotes, Tulahuen 2 strain (genotype TcVI); assay: in vitro anti-T. cruzi activity, epimastigote growth (absorbance 600 nm); assay type: cell-based, Trypanosoma cruzi
Procedure: Control parasites were cultivated in 0.4% DMSO. Each concentration of the compound was evaluated in duplicate.

[4] = test system: promastigotes L. braziliensis/ L. amazonensis; assay: in vitro anti-Leishmania activity, promastigotes (Table 1S); assay type: cell-based; details: read-out: IC50 ± %SD (µM) promastigotes L. braziliensis/ L. amazonensis
[5] = test system: T. cruzi blood trypomastigotes of the Y strain; assay: in vivo anti-T. cruzi study (acute Chagas model); design: species or system Trypanosoma cruzi; details: BALB/c mice, 50 mg/kg/day oral for 14 days
[6] = test system: J774.1 murine macrophages; assay: nonspecific cytotoxicity on mammalian cells, MTT; assay type: cell-based; details: for IC50: Mus musculus, J774.1, 48 h, MTT, read-out: IC50 ± SD (µM) Murine Macrophages; for SI J774.1/T. cruzi: ratio IC50 murine macrophages / IC50 T. cruzi epimastigotes
[7] = test system: L. infantum .uy (parasites isolated from two dogs in the first Leishmaniasis outbreak in Uruguay); assay: in vitro activity against L. infantum isolated from dogs in Uruguay; assay type: cell-based, Leishmania infantum; details: for IC50: Leishmania infantum, read-out: IC50 ± %SD (µM) L. infantum .uy
Procedure: Compounds were dissolved in dimethylsulfoxide (DMSO).
For assessing the amastigote form of all Leishmania strains were cultured in the RPMI described above. Parasites were seeded at 1 × 10^6 cells/mL and at each time point counted at least five times to obtain a growth curve. […] Control conditions of parasites without drug (100% growth) and medium without parasites were included. After 72 h at 28 °C parasite viability was determined by the resazurin method described. Infection with L. infantum. THP-1 monocytes (ATCC®TIB-202™) were grown following ATCC recommendations and seeded at 30,000 cells/well onto 18-mm round glass coverslips in 12 wells. For stimulation cells were incubated with 100 nM of PMA for 48 h, PMA was washed and cells left with growth media for 24 h more after incubation with parasites. 30,000 parasites/well were added and left to interact. After 48 h, coverslips were washed with PBS, fixed with 95% (v/v) ethanol, and stained with Fluoroshield™ with DAPI (Sigma). Infectivity was assessed considering invasion and replication capacity counting infected cells and parasites per infected cell, respectively. Infectivity index calculation = (% of infected cells X (amastigotes per cell))/number of total counted cells. Image acquisition was made with a Leica TCS-SP5 laser scanning confocal microscope (Leica Microsystems GmbH, Wetzlar, Germany) using the LASAF v.2 software (Leica Microsystems, Wetzlar, Germany) and observed using a 356 nm laser excitation line and an emission bandwidth from 461 nm under a 20× water immersion objective. Further image analysis, including quantitation and processing of figures were made using Fiji (http://fiji.sc/).

[8] = test system: L. amazonensis (promastigotes); assay: in vitro anti-Leishmania activity, promastigotes, resazurin; assay type: cell-based; details: maximum dose tested 25 µM, read-out: IC50 ± %SD (µM) L. amazonensis
solubility (qualitative) = assay type: physicochemical; details: maximum dose tested 25 µM
[9] = Trypanosoma cruzi, TULAHUEN, Table 1S, read-out: IC50 ± %SD (µM) epimastigotes T. cruzi
[10] = Table 1S, one value printed for p/c
[11] = Table 1S, read-out: IC50 ± %SD (µM) promastigotes L. infantum
[12] = Table 1S, read-out: IC50 ± %SD (µM) epimastigotes T. cruzi
[13] = Leishmania infantum, promastigotes, maximum dose tested 25 µM, read-out: IC50 ± %SD (µM) L. infantum
[14] = Trypanosoma cruzi, TULAHUEN, epimastigotes, maximum dose tested 25 µM, read-out: IC50 ± %SD (µM) T. cruzi

Row | Compound | melting point | IC50 [4] | IC50 [6] | SI J774.1/T. cruzi [6] | IC50 [7] | IC50 [2, 13] | IC50 [3, 14] | other results
1 | CC(/C=C/C(=O)[C@H]1CC[C@H]2[C@@H]3CC=C4CC(O)CC[C@]4(C)[C@H]3CC[C@]12C)=C\c1ccco1 (stereo partly drawn) [Compound 16, (2E,4E)-5-(furan-2-yl)-1-((8S,9S,10R,13S,14S,17S)-3-hydroxy-10,13-dimethyl-2,3,4,7,8,9,10,11,12,13,14,15,16,17-tetradecahydro-1H-cyclopenta[a]phenanthren-17-yl)-4-methylpenta-2,4-dien-1-one] | 110 to 113 °C | 23 ± 3 µM |  |  |  |  |  | IC50 ([1]; Leishmania infantum): > 25 µM; IC50 ([2]; Leishmania infantum, Table 1S, read-out: IC50 ± %SD (µM) promastigotes L. infantum): > 25 µM; IC50 [3, 9]: > 25 µM
2 | O=C(Cn1ccnc1[N+](=O)[O-])NCc1ccccc1 [Benznidazole, reference compound] |  |  | 400 ± 4 µM | 57 |  |  |  | % of Survivals (Chagas) [5]: 100%; Number of Parasites (Chagas) ([5]; peak of parasitemia): (0.01 ± 0.01) × 10^6 per mL blood; % of Reduction (Chagas) ([5]; reduction of parasitemia vs control): 96%
3 | CSc1ccc(/C=C/C(=O)[C@H]2CCC3C4CC=C5C[C@@H](O)CC[C@]5(C)C4CC[C@@]32C)cc1 (stereo partly shown) [Compound 15] |  | > 25 µM |  |  |  |  |  | IC50 [1, 10]: > 25 µM; IC50 [2, 11]: > 25 µM; IC50 [3, 12]: > 25 µM
4 | C[C@]12CC[C@H]3[C@@H](CC=C4CC(O)CC[C@@]43C)[C@@H]1CC[C@@H]2C(=O)/C=C/c1ccccc1Cl (stereo partly shown) [Compound 2] | 149 to 151 °C | 23 ± 5 µM | 100 ± 10 µM | 8 | > 25 µM | > 25 µM | 12 ± 3 µM | active against the strains isolated from Uruguayan dogs, in words [7]: not; activity against Leishmania infantum from Fiocruz collection, in words [2]: active; IC50 [8]: 23 ± 5 µM; SI J774.1/L. amazonensis ([6]; ratio IC50 murine macrophages / IC50 L. amazonensis promastigotes): 4
5 | C[C@]12CC[C@H]3[C@@H](CC=C4CC(O)CC[C@@]43C)[C@@H]1CC[C@@H]2C(=O)/C=C/C=C/c1cccs1 (stereo partly drawn) [Compound 17, (2E,4E)-5-(thiofen-2-yl)-1-((8S,9S,10R,13S,14S,17S)-3-hydroxy-10,13-dimethyl-2,3,4,7,8,9,10,11,12,13,14,15,16,17-tetradecahydro-1H-cyclopenta[a]phenanthren-17-yl)penta-2,4-dien-1-one] |  | > 25 µM |  |  |  |  |  | IC50 [1, 10]: > 25 µM; IC50 [2, 11]: > 25 µM; IC50 [3, 12]: > 25 µM
6 | C=CCNC(=S)N/N=C(\C)[C@H]1CC[C@H]2[C@@H]3CC=C4CC(O)CC[C@]4(C)[C@H]3CC[C@]12C (stereo partly drawn) [Compound 9, 1-(3β-Hydroxy-pregn-5-ene-20E-ylidene)-4-Allylthiosemicarbazone] | 229 to 233 °C |  | 25 ± 2 µM | 3 | > 25 µM | > 25 µM | 8 ± 2 µM | active against the strains isolated from Uruguayan dogs, in words [7]: not; activity against Leishmania infantum from Fiocruz collection, in words [2]: active; solubility in the conditions of the mammalian cell assay, in words (solubility (qualitative)): poorly soluble; IC50 [3, 9]: 7.8 µM
7 | C/C(=N\NC(=S)Nc1ccccc1)[C@H]1CC[C@H]2[C@@H]3CC=C4CC(O)CC[C@]4(C)[C@H]3CC[C@]12C (stereo partly drawn) [Compound 10, 1-(3β-Hydroxy-pregn-5-ene-20E-ylidene)-4-phenylthiosemicarbazone] | 215 to 217 °C |  | 25 ± 5 µM | 1 | > 25 µM | > 25 µM | 25 ± 3 µM | solubility in the conditions of the mammalian cell assay, in words (solubility (qualitative)): poorly soluble
